Test results as given in patent publication US10766879B2, “Pyrimidine derivatives as kinase inhibitors and their therapeutical applications” (NantBioScience, Inc., priority 2015, dated 2020).

Columns and labels:
[1] = molecular target: T1, Abl kinase (Homo sapiens, UniProt P00519); experiment: KinaseProfiler kinase inhibition assay, Abl; type: biochemical; settings: 1 μM compound
T1 construct: purchased Millipore (KinaseProfiler Service)

[2] = molecular target: T2, Alk kinase (Homo sapiens, UniProt Q9UM73); experiment: KinaseProfiler kinase inhibition assay, Alk; type: biochemical; settings: 1 μM compound
T2 construct: purchased Millipore (KinaseProfiler Service)

[3] = molecular target: T3, c-Src kinase (Homo sapiens, UniProt P12931); experiment: KinaseProfiler kinase inhibition assay, c-Src; type: biochemical; settings: 1 μM compound; read-out: % Inhibition @1 μM cSrc
T3 construct: purchased Millipore (KinaseProfiler Service)

[4] = molecular target: T4, FGFR1 kinase (Homo sapiens, UniProt P11362); experiment: KinaseProfiler kinase inhibition assay, FGFR1; type: biochemical; settings: 1 μM compound
T4 construct: purchased Millipore (KinaseProfiler Service)

[5] = molecular target: T5, KDR kinase (Homo sapiens, UniProt P35968); experiment: KinaseProfiler kinase inhibition assay, KDR; type: biochemical; settings: 1 μM compound
T5 construct: purchased Millipore (KinaseProfiler Service)

[6] = molecular target: T6, Ret kinase (Homo sapiens, UniProt P07949); experiment: KinaseProfiler kinase inhibition assay, Ret; type: biochemical; settings: 1 μM compound
T6 construct: purchased Millipore (KinaseProfiler Service)

[7] = molecular target: T7, Tie2 (Homo sapiens, UniProt Q02763); experiment: KinaseProfiler kinase inhibition assay, Tie2; type: biochemical; settings: 1 μM compound
T7 construct: purchased Millipore (KinaseProfiler Service)

[8] = system: AN3_CA; experiment: CellTiterblue viability, 72 hr, AN3_CA; type: cell-based; settings: Homo sapiens, AN3-CA, AN3_CA cells
Method: (§1) A number of studies were performed to analyze the consequences of tyrosine kinase inhibition in cell lines. To do this, 1000 cells are seeded in 27 μl/well in 384-well microplates, which are then placed in a humidified CO2 incubator at 37° C. overnight. The next day, 3 μl/well of 10× concentrated drug is added and the plates are returned to the incubator for 72 hr. After 72 hr incubation, plates are removed and […] CellTiterblue (Promega) viability reagent is added. Plates are returned to the incubator for 3 hr, after which it is fluorescence measurements are read on the Victor X3 plate reader (Perkin Elmer). Data are analyzed using Excel (Microsoft), and GI50 values are determined using Prism (Graphpad).

[9] = system: Kato III; experiment: CellTiterblue viability, 72 hr, Kato III; type: cell-based; settings: Homo sapiens, Kato III cells
Method: as §1

[10] = system: KG1a; experiment: CellTiterblue viability, 72 hr, KG1a; type: cell-based; settings: Homo sapiens, KG-1a, KG1a cells
Method: as §1

[11] = system: RT112; experiment: CellTiterblue viability, 72 hr, RT112; type: cell-based; settings: Homo sapiens, RT-112, RT112 cells
Method: as §1

[12] = molecular target: T8, phospho-FGFR2 (Homo sapiens, UniProt P21802); experiment: phospho-FGFR ELISA on Kato III cells; type: cell-based; settings: read-out: EC50 (nM) P-FGFR2, Kato III cells
T8 construct: endogenous in cells; host or cells: Kato III cells
Method: For the phospho-FGFR, the following assay Protocol was used. 25,000 cells are seeded in 90 μl/well in 96-well microplates, which are then placed in a humidified CO2 incubator at 37° C. overnight. 96-well ELISA plates (Mesoscale Discovery) are coated with capture antibody (R&D Systems Duo-Set) at 4 μg/ml, 30 μl/well. The next day, 10 μl/well of 10× concentrated drug is added and the plates are returned to the incubator for […]. ELISA plates are washed using an automated plate washer (BioTek Instruments). After 30 min, cells are inverted and gently tapped to remove excess medium, and immediately placed on ice. 30 μl mPer cell lysis reagent (Thermo Scientific) with protease and phosphatase inhibitors is added/well. After 15 min on ice, lysates are mixed and 30 μl transferred to the ELISA plate. Plates are incubated for 2 hr, washed, and 30 μl/well detection antibody is added. After 1 hr, plates are washed and 30 μl “SulfoTag” (MesoScale Discovery) detection reagent is added. After 1 hr, plates are washed and 150 μl/well read solution is added. Electrochemiluminescence is determined on the Mesoscale Discovery Sector Imager 2000. Data are analyzed using Excel (Microsoft), and EC50 values are determined using Prism (Graphpad).

[13] = system: MDA-MB134; experiment: CellTiterblue viability, 72 hr, MDA-MB134; type: cell-based; settings: MDA-MB134 cells
Method: as §1

T1 sequence (P00519 whole entry): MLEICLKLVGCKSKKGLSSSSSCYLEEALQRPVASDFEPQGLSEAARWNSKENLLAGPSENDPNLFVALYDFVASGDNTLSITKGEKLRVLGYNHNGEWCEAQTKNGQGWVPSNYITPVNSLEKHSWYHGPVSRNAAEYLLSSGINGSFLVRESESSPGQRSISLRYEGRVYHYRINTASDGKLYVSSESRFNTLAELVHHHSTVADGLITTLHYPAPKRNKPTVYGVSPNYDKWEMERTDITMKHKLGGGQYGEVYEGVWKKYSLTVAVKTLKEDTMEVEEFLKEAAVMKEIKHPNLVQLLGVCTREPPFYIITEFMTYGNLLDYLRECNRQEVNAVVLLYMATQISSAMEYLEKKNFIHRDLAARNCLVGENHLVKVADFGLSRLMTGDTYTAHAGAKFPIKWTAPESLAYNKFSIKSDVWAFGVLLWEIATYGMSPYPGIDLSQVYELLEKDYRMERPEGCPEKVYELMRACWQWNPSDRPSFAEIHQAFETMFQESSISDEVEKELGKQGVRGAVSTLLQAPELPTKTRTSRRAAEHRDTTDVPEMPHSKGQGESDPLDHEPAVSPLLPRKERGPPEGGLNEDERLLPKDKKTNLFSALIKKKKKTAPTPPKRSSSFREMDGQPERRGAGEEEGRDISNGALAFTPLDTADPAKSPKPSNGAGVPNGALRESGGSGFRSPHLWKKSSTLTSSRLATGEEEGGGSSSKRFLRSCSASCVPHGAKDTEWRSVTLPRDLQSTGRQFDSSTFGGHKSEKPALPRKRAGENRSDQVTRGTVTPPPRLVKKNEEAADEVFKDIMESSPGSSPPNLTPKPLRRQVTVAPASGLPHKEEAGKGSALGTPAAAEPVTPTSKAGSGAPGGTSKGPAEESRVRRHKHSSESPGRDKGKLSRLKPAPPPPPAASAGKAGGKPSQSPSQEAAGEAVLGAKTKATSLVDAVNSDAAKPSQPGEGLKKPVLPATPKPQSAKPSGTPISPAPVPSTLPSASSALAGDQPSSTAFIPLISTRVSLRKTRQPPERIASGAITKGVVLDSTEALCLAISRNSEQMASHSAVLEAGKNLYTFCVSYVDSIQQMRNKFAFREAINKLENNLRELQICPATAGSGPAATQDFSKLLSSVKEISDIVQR
T2 sequence (Q9UM73 19-1620): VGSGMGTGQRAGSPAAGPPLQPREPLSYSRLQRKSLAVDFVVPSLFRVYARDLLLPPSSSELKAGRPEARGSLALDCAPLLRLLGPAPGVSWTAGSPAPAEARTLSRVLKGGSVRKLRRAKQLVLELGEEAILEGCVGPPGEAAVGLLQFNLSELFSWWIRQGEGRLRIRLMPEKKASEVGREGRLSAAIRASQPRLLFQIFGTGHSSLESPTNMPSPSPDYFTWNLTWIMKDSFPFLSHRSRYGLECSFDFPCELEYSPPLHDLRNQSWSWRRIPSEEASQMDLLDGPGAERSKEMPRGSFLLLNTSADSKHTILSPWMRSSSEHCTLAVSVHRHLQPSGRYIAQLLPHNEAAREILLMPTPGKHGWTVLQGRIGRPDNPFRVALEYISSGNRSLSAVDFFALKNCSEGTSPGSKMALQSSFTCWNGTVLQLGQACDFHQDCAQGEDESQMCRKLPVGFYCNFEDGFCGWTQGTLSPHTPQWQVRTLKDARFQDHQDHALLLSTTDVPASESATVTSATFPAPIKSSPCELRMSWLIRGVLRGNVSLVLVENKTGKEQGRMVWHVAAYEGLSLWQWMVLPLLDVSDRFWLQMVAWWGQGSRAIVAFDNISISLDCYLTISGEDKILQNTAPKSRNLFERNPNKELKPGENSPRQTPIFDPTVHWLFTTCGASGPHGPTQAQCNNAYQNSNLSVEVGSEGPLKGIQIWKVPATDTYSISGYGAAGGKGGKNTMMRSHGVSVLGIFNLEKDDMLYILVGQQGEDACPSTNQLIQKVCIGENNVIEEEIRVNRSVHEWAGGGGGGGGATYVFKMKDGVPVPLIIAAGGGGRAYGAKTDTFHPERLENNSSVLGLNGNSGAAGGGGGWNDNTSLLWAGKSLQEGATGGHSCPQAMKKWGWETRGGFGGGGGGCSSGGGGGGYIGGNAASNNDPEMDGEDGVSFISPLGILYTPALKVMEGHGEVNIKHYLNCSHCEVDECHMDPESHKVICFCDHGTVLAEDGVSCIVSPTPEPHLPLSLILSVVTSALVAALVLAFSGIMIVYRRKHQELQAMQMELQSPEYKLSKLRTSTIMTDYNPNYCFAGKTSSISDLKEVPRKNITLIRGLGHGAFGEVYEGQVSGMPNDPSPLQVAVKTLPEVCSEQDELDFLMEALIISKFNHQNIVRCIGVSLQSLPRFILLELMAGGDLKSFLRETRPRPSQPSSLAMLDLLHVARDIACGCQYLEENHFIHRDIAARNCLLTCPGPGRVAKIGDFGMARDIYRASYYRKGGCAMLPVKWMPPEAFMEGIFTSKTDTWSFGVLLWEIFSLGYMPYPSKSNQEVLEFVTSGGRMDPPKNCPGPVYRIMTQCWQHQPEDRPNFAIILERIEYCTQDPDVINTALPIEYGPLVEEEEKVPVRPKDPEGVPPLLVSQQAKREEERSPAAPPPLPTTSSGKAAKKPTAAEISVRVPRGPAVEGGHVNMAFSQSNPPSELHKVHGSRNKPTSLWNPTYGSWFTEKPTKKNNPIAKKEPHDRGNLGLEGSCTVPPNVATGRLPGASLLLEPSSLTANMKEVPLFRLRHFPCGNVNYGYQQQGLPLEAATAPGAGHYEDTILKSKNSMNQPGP
T5 sequence (P35968 20-1356): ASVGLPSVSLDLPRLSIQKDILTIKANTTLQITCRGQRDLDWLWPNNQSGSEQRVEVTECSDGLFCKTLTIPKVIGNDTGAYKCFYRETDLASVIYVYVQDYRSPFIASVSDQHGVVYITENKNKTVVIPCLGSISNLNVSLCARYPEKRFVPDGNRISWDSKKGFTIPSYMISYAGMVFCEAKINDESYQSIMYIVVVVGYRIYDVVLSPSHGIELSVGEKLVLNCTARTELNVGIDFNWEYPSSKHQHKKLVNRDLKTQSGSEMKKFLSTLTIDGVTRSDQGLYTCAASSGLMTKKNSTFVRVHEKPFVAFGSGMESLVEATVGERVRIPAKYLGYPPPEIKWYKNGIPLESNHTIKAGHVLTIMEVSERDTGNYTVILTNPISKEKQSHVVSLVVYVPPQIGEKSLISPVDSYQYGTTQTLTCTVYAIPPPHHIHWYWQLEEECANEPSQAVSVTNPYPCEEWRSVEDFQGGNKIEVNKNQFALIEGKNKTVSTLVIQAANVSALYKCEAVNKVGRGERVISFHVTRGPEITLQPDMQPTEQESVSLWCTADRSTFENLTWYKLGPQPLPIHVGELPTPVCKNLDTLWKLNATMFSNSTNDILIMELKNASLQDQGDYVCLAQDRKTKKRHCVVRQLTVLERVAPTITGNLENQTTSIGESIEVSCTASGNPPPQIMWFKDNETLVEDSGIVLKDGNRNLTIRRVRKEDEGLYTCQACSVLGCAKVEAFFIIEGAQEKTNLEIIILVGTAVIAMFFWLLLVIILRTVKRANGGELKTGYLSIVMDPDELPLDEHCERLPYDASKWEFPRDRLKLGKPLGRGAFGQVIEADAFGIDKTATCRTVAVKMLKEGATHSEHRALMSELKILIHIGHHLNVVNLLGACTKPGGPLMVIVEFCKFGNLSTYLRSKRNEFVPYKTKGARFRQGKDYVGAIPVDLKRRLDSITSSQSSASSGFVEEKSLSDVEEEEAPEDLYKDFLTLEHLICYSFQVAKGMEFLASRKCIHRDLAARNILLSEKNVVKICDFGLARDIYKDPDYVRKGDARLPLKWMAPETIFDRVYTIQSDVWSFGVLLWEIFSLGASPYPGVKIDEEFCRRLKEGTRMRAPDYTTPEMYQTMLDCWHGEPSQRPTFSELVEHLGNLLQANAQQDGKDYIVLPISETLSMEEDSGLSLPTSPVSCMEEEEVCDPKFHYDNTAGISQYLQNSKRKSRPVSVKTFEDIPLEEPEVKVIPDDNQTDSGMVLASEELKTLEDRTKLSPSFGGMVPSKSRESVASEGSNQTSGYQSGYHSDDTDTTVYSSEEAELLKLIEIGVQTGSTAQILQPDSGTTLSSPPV
T6 sequence (P07949 29-1114): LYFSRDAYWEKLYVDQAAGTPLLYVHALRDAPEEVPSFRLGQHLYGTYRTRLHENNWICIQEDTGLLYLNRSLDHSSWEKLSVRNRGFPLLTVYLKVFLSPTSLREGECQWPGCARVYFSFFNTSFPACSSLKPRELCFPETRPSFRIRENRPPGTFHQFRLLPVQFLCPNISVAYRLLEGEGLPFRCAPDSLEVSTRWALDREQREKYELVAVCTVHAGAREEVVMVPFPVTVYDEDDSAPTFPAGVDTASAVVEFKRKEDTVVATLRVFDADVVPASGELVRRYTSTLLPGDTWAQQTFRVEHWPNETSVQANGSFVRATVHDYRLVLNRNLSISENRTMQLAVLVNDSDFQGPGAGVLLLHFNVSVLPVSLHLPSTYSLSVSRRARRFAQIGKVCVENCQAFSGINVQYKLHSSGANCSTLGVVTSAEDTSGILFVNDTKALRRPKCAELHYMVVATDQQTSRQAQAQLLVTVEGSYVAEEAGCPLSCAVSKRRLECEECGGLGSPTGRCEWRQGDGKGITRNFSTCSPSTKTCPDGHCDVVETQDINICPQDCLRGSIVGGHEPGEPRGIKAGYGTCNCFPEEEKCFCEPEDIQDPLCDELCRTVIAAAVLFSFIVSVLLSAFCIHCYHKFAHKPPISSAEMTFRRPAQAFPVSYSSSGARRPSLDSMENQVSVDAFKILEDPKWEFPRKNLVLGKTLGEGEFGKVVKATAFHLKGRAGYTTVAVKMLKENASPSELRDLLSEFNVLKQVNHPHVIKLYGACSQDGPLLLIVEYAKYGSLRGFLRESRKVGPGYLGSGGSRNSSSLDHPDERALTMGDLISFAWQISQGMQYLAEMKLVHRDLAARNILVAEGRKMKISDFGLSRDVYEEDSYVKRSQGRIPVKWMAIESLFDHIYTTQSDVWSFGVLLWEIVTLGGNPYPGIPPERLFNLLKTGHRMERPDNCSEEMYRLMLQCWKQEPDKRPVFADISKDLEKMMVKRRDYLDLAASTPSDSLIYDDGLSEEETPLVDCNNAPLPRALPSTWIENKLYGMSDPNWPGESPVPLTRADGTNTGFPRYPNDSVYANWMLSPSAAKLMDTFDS

Row | SMILES | inhibition at 1 µM [1] [%] | inhibition at 1 µM [2] [%] | inhibition at 1 µM [3] [%] | inhibition at 1 µM [4] [%] | inhibition at 1 µM [5] [%] | inhibition at 1 µM [6] [%] | inhibition at 1 µM [7] [%] | EC50 [12] [nM] | GI50 [13] [nM] | GI50 [8] [nM] | GI50 [9] [nM] | GI50 [10] [nM] | GI50 [11] [nM]
1 | Cc1cc2c(F)c(Oc3cc(Nc4ccc(N5CCNCC5)cc4)ncn3)cc(F)c2[nH]1 [Compound 51] | 73 | 54 | 70 | 101 | 97 | 74 | 82 | 38 |  | 406 | 169 | > 100 | > 100
2 | Cc1cc2c(F)c(Oc3ncnc(Nc4ccc(N5CCN(C)CC5)cc4)c3C#N)ccc2[nH]1 [Compound 54] | 3 | -30 | 8 | 101 | 97 | -30 | 21 |  | 20 | 214 | 12 | 4 | 103
3 | CCN1CCN(c2ccc(Nc3ncnc(Oc4ccc5[nH]c(C)cc5c4F)c3C#N)nc2)CC1 [Compound 55] | 2 | -23 | 10 | 99 | 91 | -48 | 31 |  | 78 | 98 | 319 | 7 | > 500
4 | CCN1CCN(c2ccc(Nc3ncnc(Oc4ccc5c(cc(C)n5C)c4F)c3C#N)cc2)CC1 [Compound 65] | -1 | -28 | 13 | 98 | 8 | -19 | 37 |  | 461 | > 500 | > 500 | > 500 | > 500
5 | CCN1CCN(c2ccc(Nc3ncnc(Oc4ccc5[nH]c(C)cc5c4F)c3C(N)=O)cc2)CC1 [Compound 68] | 67 | 46 | 85 | 100 | 96 | 97 | 94 |  | 111 | 79 | 23 | 32 | 11
6 | CCN1CCN(c2ccc(Nc3cc(Oc4ccc5[nH]c(C)cc5c4F)ncn3)cc2)CC1 [Example 3] | 47 | -2 | 46 | 102 | 97 | 75 | 61 | 93 |  | > 500 |  | > 100 | > 100
7 | Cc1cc2c(F)c(Oc3cc(Nc4cc(C5CC5)[nH]n4)ncn3)ccc2[nH]1 [Example 16] | 64 | 2 | 54 | 92 | 90 | 79 | 75 | > 100 |  | > 500 |  | > 100 | > 100
8 | C/C=C/c1cc(Nc2cc(Oc3ccc4[nH]c(C)cc4c3F)ncn2)n[nH]1 [Example 17] | 42 | 2 | 21 | 95 | 90 | 73 | 37 | > 100 |  | > 500 |  | > 100 | > 100
9 | Cc1cc2c(F)c(Oc3cc(Nc4cc(-c5ccco5)[nH]n4)ncn3)ccc2[nH]1 [Example 20] | 36 | 3 | 24 | 92 | 88 | 78 | 47 | > 100 |  | > 500 |  | > 100 | > 100

Second part, led by results:

Row | inhibition at 1 µM [1] [%] | inhibition at 1 µM [2] [%] | inhibition at 1 µM [3] [%] | inhibition at 1 µM [4] [%] | inhibition at 1 µM [5] [%] | inhibition at 1 µM [6] [%] | inhibition at 1 µM [7] [%] | EC50 [12] [nM] | GI50 [13] [nM] | SMILES | GI50 [8] [nM] | GI50 [9] [nM] | GI50 [10] [nM] | GI50 [11] [nM]
10 | 19 | 15 | 9 | 98 | 96 | 25 | 18 | > 100 |  | Cc1cc2c(F)c(Oc3ncnc(Nc4ccc(N5CCN(C)CC5)cn4)c3Cl)ccc2[nH]1 [Compound 34, 5-chloro-6-((4-fluoro-2-methyl-1H-indol-5-yl)oxy)-N-(5-(4-methylpiperazin-1-yl)pyridin-2-yl)pyrimidin-4-amine] | > 500 | 229 | > 100 | > 100
11 | -6 | -40 | 12 | 99 | 94 | -26 | 30 |  | 8 | Cc1cc2c(F)c(Oc3ncnc(Nc4ccc(N5CCNCC5)cc4)c3C#N)ccc2[nH]1 [Compound 57] | > 500 | 51 | 4 | 33
12 | -7 | 3 | 3 | 100 | 93 | -42 | 24 |  | 18 | CCN1CCN(c2ccc(Nc3ncnc(Oc4cc(F)c5[nH]c(C)cc5c4F)c3C#N)cc2)CC1 [Compound 60] | > 500 | 26 | 5 | 47
13 | 3 | -41 | -9 | 100 | 51 | -13 | 23 |  | 28 | CCN1CCN(c2ccc(Nc3ncnc(Oc4cc(F)c5[nH]c(C)cc5c4F)c3C#N)nc2)CC1 [Compound 61] | > 500 | 77 | 4 | 11
14 | 3 | -3 | 1 | 91 | 10 | -41 | 13 |  | 282 | CCN1CCN(c2ccc(Nc3ncnc(Oc4ccc5c(cc(C)n5C)c4F)c3F)cc2)CC1 [Compound 63] | > 500 | > 500 | > 500 | > 500
15 | 45 | 3 | 47 | 102 | 97 | 75 | 58 | 88 |  | Cc1cc2c(F)c(Oc3cc(Nc4ccc(N5CCN(C)CC5)cc4)ncn3)ccc2[nH]1 [Example 2] | 490 | 165 | > 100 | > 100
16 | 63 | -10 | 65 | 93 | 97 | 77 | 45 | > 100 |  | COc1ccc(-c2cc(Nc3cc(Oc4ccc5[nH]c(C)cc5c4F)ncn3)n[nH]2)cc1OC [Example 5] | 211 | > 500 | > 100 | > 100
